Data: ChEMBL document CHEMBL5576051, “Synthesis of 2,2-dimethyl-chroman-based stereochemically flexible and constrained anti-breast cancer agents” (Bioorg Med Chem Lett, 2024)
Calls of active or inactive are those of the source. No cut-off for these calls is given here.

Legend:
MCF7 [1] = assay: Antiproliferative activity against estrogen receptor positive human MCF7 cells assessed as inhibition of cell viability by MTT assay; format: functional, cell-based
MDA-MB-231 [2] = assay: Antiproliferative activity against estrogen receptor negative human MDA-MB-231 cells assessed as inhibition of cell viability by MTT assay; format: functional, cell-based
MCF7 [3] = assay: Induction of apoptosis in human MCF7 cells assessed as inhibition of PARP level; format: functional, cell-based
MCF7 [4] = assay: Induction of cell cycle arrest in estrogen receptor positive human MCF7 cells assessed as accumulation of cells at S phase at 13.4 uM incubated for 24 hrs (reference value: 20.84%); format: functional
MCF7 [5] = assay: Induction of cell cycle arrest in estrogen receptor positive human MCF7 cells assessed as accumulation of cells at G0/G1 phase at 13.4 uM incubated for 24 hrs (reference value: 60.49%); format: functional
MCF7 [6] = assay: Induction of cell cycle arrest in estrogen receptor positive human MCF7 cells assessed as accumulation of cells at G2/M phase at 13.4 uM incubated for 24 hrs (reference value: 19.32%); format: functional
MDA-MB-231 [7] = assay: Induction of apoptosis in human MDA-MB-231 cells assessed as inhibition of PARP level; format: functional, cell-based
MDA-MB-231 [8] = assay: Induction of cell cycle arrest in estrogen receptor […] human MDA-MB-231 cells assessed as accumulation of cells at S phase at 9.2 uM incubated for 24 hrs (reference value: 25.49%); format: functional
MDA-MB-231 [9] = assay: Induction of cell cycle arrest in estrogen receptor negative human MDA-MB-231 cells assessed as accumulation of cells at G0/G1 phase at 9.2 uM incubated for 24 hrs (reference value: 61.44%); format: functional
MDA-MB-231 [10] = assay: Induction of cell cycle arrest in estrogen receptor […] human MDA-MB-231 cells assessed as accumulation of cells at G2/M phase at 9.2 uM incubated for 24 hrs (reference value: 13.64%); format: functional
MDA-MB-231 [11] = assay: Induction of cell cycle arrest in estrogen receptor negative human MDA-MB-231 cells assessed as accumulation of cells at G0/G1 phase at 8.8 uM incubated for 24 hrs (reference value: 61.44%); format: functional
MCF7 [12] = assay: Induction of cell cycle arrest in estrogen receptor positive human MCF7 cells assessed as accumulation of cells at G0/G1 phase at 12.9 uM incubated for 24 hrs (reference value: 60.49%); format: functional
MDA-MB-231 [13] = assay: Induction of cell cycle arrest in estrogen receptor […] human MDA-MB-231 cells assessed as accumulation of cells at G2/M phase at 8.8 uM incubated for 24 hrs (reference value: 13.64%); format: functional
MCF7 [14] = assay: Induction of cell cycle arrest in estrogen receptor positive human MCF7 cells assessed as accumulation of cells at S phase at 12.9 uM incubated for 24 hrs (reference value: 20.84%); format: functional
MDA-MB-231 [15] = assay: Induction of cell cycle arrest in estrogen receptor […] human MDA-MB-231 cells assessed as accumulation of cells at S phase at 8.8 uM incubated for 24 hrs (reference value: 25.49%); format: functional
MCF7 [16] = assay: Induction of cell cycle arrest in estrogen receptor positive human MCF7 cells assessed as accumulation of cells at G2/M phase at 12.9 uM incubated for 24 hrs (reference value: 19.32%); format: functional
MDA-MB-231 [17] = assay: Induction of cell cycle arrest in estrogen receptor […] human MDA-MB-231 cells assessed as accumulation of cells at G2/M phase at 9 uM incubated for 24 hrs (reference value: 13.64%); format: functional
MCF7 [18] = assay: Induction of cell cycle arrest in estrogen receptor positive human MCF7 cells assessed as accumulation of cells at S phase at 11 uM incubated for 24 hrs (reference value: 20.84%); format: functional
MDA-MB-231 [19] = assay: Induction of cell cycle arrest in estrogen receptor negative human MDA-MB-231 cells assessed as accumulation of cells at G0/G1 phase at 9 uM incubated for 24 hrs (reference value: 61.44%); format: functional
MCF7 [20] = assay: Induction of cell cycle arrest in estrogen receptor positive human MCF7 cells assessed as accumulation of cells at G2/M phase at 11 uM incubated for 24 hrs (reference value: 19.32%); format: functional
MCF7 [21] = assay: Induction of cell cycle arrest in estrogen receptor positive human MCF7 cells assessed as accumulation of cells at G0/G1 phase at 11uM incubated for 24 hrs (reference value: 60.49%); format: functional
MDA-MB-231 [22] = assay: Induction of cell cycle arrest in estrogen receptor […] human MDA-MB-231 cells assessed as accumulation of cells at S phase at 9 uM incubated for 24 hrs (reference value: 25.49%); format: functional
MCF7 [23] = assay: Induction of cell cycle arrest in estrogen receptor positive human MCF7 cells assessed as accumulation of cells at S phase at 15 uM incubated for 24 hrs (reference value: 20.84%); format: functional
MCF7 [24] = assay: Induction of cell cycle arrest in estrogen receptor positive human MCF7 cells assessed as accumulation of cells at G2/M phase at 15 uM incubated for 24 hrs (reference value: 19.32%); format: functional
MCF7 [25] = assay: Induction of cell cycle arrest in estrogen receptor positive human MCF7 cells assessed as accumulation of cells at G0/G1 phase at 15 uM incubated for 24 hrs (reference value: 60.49%); format: functional

| IC50 (MCF7 [1]) [µM] | IC50 (MDA-MB-231 [2]) [µM] | SMILES | also measured |
| --- | --- | --- | --- |
|  |  | COc1ccc2c(c1)OC(C)(C)CC2C(c1ccccc1)c1ccc(OCCN(C)C)cc1 (stereo not given) | Activity (MCF7 [1]): inactive; Activity (MDA-MB-231 [2]): inactive |
| 12.5 | 9.5 | COc1ccc2c(c1)OC(C)(C)CC2C(c1ccccc1)c1ccc(O)cc1 (stereo not given) |  |
| 13.5 | 8.5 | COc1ccc2c(c1)OC(C)(C)CC2C(c1ccccc1)c1ccccc1OCCN(C)C (stereo not given) |  |
| 14 | 11 | COc1ccc2c(c1)OC(C)(C)CC2C(c1ccccc1)c1ccccc1OCC(C)N(C)C (stereo not given) |  |
| 22 | 17 | COc1ccc2c(c1)OC(C)(C)C/C2=C(/c1ccc(O)cc1)c1ccccc1F |  |
| 13.3 | 8.5 | COc1ccc2c(c1)OC(C)(C)CC2C(c1ccccc1)c1ccc(OCCN2CCCCC2)cc1 (stereo not given) |  |
| 13.3 | 9.6 | COc1ccc2c(c1)OC(C)(C)CC2C(c1ccccc1)c1ccc(OCCN2CCCC2)cc1 (stereo not given) |  |
| 25 | 20 | COc1ccc2c(c1)OC(C)(C)CC2C(c1ccccc1)c1ccccc1OCCN1CCCC1 (stereo not given) |  |
| 19 | 13 | COc1ccc2c(c1)OC(C)(C)C/C2=C(\c1ccccc1)c1ccccc1OCCN1CCCC1 |  |
| 13.6 | 10.4 | COc1ccc2c(c1)OC(C)(C)CC2C(c1ccccc1)c1ccccc1O (stereo not given) |  |
| 13.4 | 9.2 | COc1ccc2c(c1)OC(C)(C)CC2C(c1ccccc1)c1ccccc1OCCN1CCCCC1 (stereo not given) | Activity (MCF7 [3]): Active; Activity (MCF7 [4]): 11.86%; Activity (MCF7 [5]): 71.33%; Activity (MCF7 [6]): 17.14%; Activity (MDA-MB-231 [7]): Active; Activity (MDA-MB-231 [8]): 13.75%; Activity (MDA-MB-231 [9]): 74.38%; Activity (MDA-MB-231 [10]): 12.12% |
| 15.2 | 11.3 | COc1ccc2c(c1)OC(C)(C)CC2C(c1ccccc1)c1ccc(OCC(C)N(C)C)cc1 (stereo not given) |  |
| 15 | 12 | CCN(CC)CCOc1ccccc1/C(=C1/CC(C)(C)Oc2cc(OC)ccc21)c1ccccc1 |  |
| 16 | 12 | COc1ccc2c(c1)OC(C)(C)C/C2=C(\c1ccccc1)c1ccccc1OCCN1CCCCC1 |  |
| 15.4 | 11.5 | CCN(CC)CCOc1ccc(C(c2ccccc2)C2CC(C)(C)Oc3cc(OC)ccc32)cc1 (stereo not given) |  |
| 12.9 | 8.8 | COc1ccc2c(c1)OC(C)(C)C/C2=C(\c1ccccc1)c1ccccc1OCCN(C)C | Activity (MCF7 [3]): Active; Activity (MDA-MB-231 [11]): 70.51%; Activity (MDA-MB-231 [7]): Active; Activity (MCF7 [12]): 63.58%; Activity (MDA-MB-231 [13]): 13.2%; Activity (MCF7 [14]): 17.85%; Activity (MDA-MB-231 [15]): 16.79%; Activity (MCF7 [16]): 19.26% |
| 11 | 9 | COc1ccc2c(c1)OC(C)(C)C/C2=C(\c1ccccc1)c1ccccc1OCC(C)N(C)C (stereo not given) | Activity (MCF7 [3]): Active; Activity (MDA-MB-231 [17]): 12.94%; Activity (MDA-MB-231 [7]): Active; Activity (MCF7 [18]): 20%; Activity (MDA-MB-231 [19]): 66.73%; Activity (MCF7 [20]): 22.64%; Activity (MCF7 [21]): 58.31%; Activity (MDA-MB-231 [22]): 21.11% |
| 16 | 12 | COc1ccc2c(c1)OC(C)(C)C/C2=C(\c1ccccc1)c1ccccc1O |  |
| 24 | 19 | COc1ccc2c(c1)OC(C)(C)CC2C(c1ccc(OCCN(C)C)cc1)c1ccccc1F (stereo not given) |  |
| 15 | 9 | CCN(CC)CCOc1ccccc1C(c1ccccc1)C1CC(C)(C)Oc2cc(OC)ccc21 (stereo not given) | Activity (MCF7 [3]): Active; Activity (MDA-MB-231 [17]): 11.71%; Activity (MCF7 [23]): 18.9%; Activity (MCF7 [24]): 20.33%; Activity (MDA-MB-231 [7]): Active; Activity (MCF7 [25]): 61.57%; Activity (MDA-MB-231 [19]): 75.26%; Activity (MDA-MB-231 [22]): 13.26% |
|  | 9.96 | CC/C(=C(\c1ccccc1)c1ccc(OCCN(C)C)cc1)c1ccccc1 [TAMOXIFEN] |  |
| 12.5 | 9.5 | COc1ccc2c(c1)OC(C)(C)C/C2=C(\c1ccccc1)c1ccc(O)cc1 |  |
